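Test compounds were applied to cells in 96-well plates for 48 hours at 5 doses. Abbreviation: GI50, concentration required for 50% inhibition of growth.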 Activity calls are given as the source filed them. No stated cut-off is given here; in the data, active = GI50 up to about 1.1 µM and inactive = higher.
Key:
Assay in all cases: inhibition of tumour cell growth, NCI panel, 48 h
A549 = test system: A549
HCT-116 = test system: HCT-116
HOP-62 = test system: HOP-62
HOP-92 = test system: HOP-92
KM12 = test system: KM12
MOLT-4 = test system: MOLT-4
NCI-H460 = test system: NCI-H460
NCI-H522 = test system: NCI-H522
OVCAR-3 = test system: OVCAR-3
OVCAR-4 = test system: OVCAR-4
OVCAR-5 = test system: OVCAR-5
OVCAR-8 = test system: OVCAR-8
RXF 393 = test system: RXF 393
SK-MEL-2 = test system: SK-MEL-2
SN12C = test system: SN12C
SNB-19 = test system: SNB-19
SNB-75 = test system: SNB-75
SW-620 = test system: SW-620
UACC-62 = test system: UACC-62
ACHN = test system: ACHN

SMILES | GI50 (A549) | GI50 (HCT-116) | GI50 (HOP-62) | GI50 (HOP-92) | GI50 (KM12) | GI50 (MOLT-4) | GI50 (NCI-H460) | GI50 (NCI-H522) | GI50 (OVCAR-3) | GI50 (OVCAR-4) | GI50 (OVCAR-5) | GI50 (OVCAR-8) | GI50 (RXF 393) | GI50 (SK-MEL-2) | GI50 (SN12C) | GI50 (SNB-19) | GI50 (SNB-75) | GI50 (SW-620) | GI50 (UACC-62) | GI50 (ACHN)
CNC(=O)C(C)C1CCC2(C)C=CC(=O)C(C)=C2C1O (stereo unspecified) | > 48.8 µM (inactive) | > 100 µM (inactive) | > 100 µM (inactive) | > 100 µM (inactive) | > 100 µM (inactive) | > 100 µM (inactive) | > 100 µM (inactive) | > 100 µM (inactive) | > 100 µM (inactive) | > 100 µM (inactive) | > 100 µM (inactive) | > 49.4 µM (inactive) | > 100 µM (inactive) | > 100 µM (inactive) | > 100 µM (inactive) | > 100 µM (inactive) | > 100 µM (inactive) | > 57.4 µM (inactive) | > 100 µM (inactive) | –
O=C1OC(=O)c2c1cc1cc3c(cc1c2-c1ccc2c(c1)OCO2)OCO3 | > 100 µM (inactive) | > 100 µM (inactive) | – | > 100 µM (inactive) | > 100 µM (inactive) | > 100 µM (inactive) | > 100 µM (inactive) | > 100 µM (inactive) | > 100 µM (inactive) | > 100 µM (inactive) | > 100 µM (inactive) | > 100 µM (inactive) | > 100 µM (inactive) | > 100 µM (inactive) | > 100 µM (inactive) | > 100 µM (inactive) | > 100 µM (inactive) | > 100 µM (inactive) | > 100 µM (inactive) | > 100 µM (inactive)
O=C1O/C(=C\c2ccc(O)cc2)C(c2ccc(O)c(Cl)c2)=C1Br | – | 11.5 µM (inactive) | 14.2 µM (inactive) | 12.9 µM (inactive) | 12.4 µM (inactive) | 11.7 µM (inactive) | 12.8 µM (inactive) | 6.76 µM (inactive) | 7 µM (inactive) | 11.4 µM (inactive) | 18.2 µM (inactive) | 17.6 µM (inactive) | 18.6 µM (inactive) | 14 µM (inactive) | 15.6 µM (inactive) | 15.7 µM (inactive) | – | 15.9 µM (inactive) | 13.7 µM (inactive) | 13.2 µM (inactive)
O=C(CC1(O)C(=O)Nc2c(Cl)cc(Cl)cc21)c1ccco1 (stereo unspecified) | > 100 µM (inactive) | – | 60.1 µM (inactive) | 36.6 µM (inactive) | 32.7 µM (inactive) | 15.4 µM (inactive) | 65.6 µM (inactive) | 62.5 µM (inactive) | 21.2 µM (inactive) | 15.7 µM (inactive) | > 100 µM (inactive) | 37.4 µM (inactive) | 78 µM (inactive) | 60.7 µM (inactive) | 63.8 µM (inactive) | > 100 µM (inactive) | 29 µM (inactive) | 50.4 µM (inactive) | – | 83.6 µM (inactive)
Nc1cc(O)c2cc(/N=N/c3ccc(/N=N/c4ccc(/N=N/c5ccc6cc(S(=O)(=O)O)cc(S(=O)(=O)O)c6c5)c5ccccc45)c4cc(S(=O)(=O)O)ccc34)c(S(=O)(=O)O)cc2c1 | 96.8 µM (inactive) | > 100 µM (inactive) | > 100 µM (inactive) | 32.2 µM (inactive) | > 100 µM (inactive) | 64.7 µM (inactive) | > 100 µM (inactive) | 98.6 µM (inactive) | 67.6 µM (inactive) | > 100 µM (inactive) | > 100 µM (inactive) | > 100 µM (inactive) | > 100 µM (inactive) | > 100 µM (inactive) | > 100 µM (inactive) | > 100 µM (inactive) | 49.1 µM (inactive) | > 100 µM (inactive) | > 100 µM (inactive) | –
COc1ccc(/C=C2/SC(c3ccccc3)N(NC(=O)CCCCCCCCC(=O)NN3C(=O)/C(=C\c4ccc(OC)c(OC)c4)SC3c3ccccc3)C2=O)cc1OC (stereo unspecified) | > 100 µM (inactive) | 29.1 µM (inactive) | 35 µM (inactive) | 17.3 µM (inactive) | 45 µM (inactive) | 19.7 µM (inactive) | 71 µM (inactive) | – | > 100 µM (inactive) | 76.7 µM (inactive) | > 100 µM (inactive) | 67.8 µM (inactive) | 58.5 µM (inactive) | 52.7 µM (inactive) | > 100 µM (inactive) | 86.1 µM (inactive) | 35.2 µM (inactive) | 54.8 µM (inactive) | 29 µM (inactive) | 25.6 µM (inactive)
O=c1ccn(C2OC(COC3CCCCO3)C(OC3CCCCO3)C2OC2CCCCO2)c(=O)n1-c1ccccc1 (stereo unspecified) | > 100 µM (inactive) | > 100 µM (inactive) | > 100 µM (inactive) | > 100 µM (inactive) | > 100 µM (inactive) | > 100 µM (inactive) | > 100 µM (inactive) | > 100 µM (inactive) | > 100 µM (inactive) | > 100 µM (inactive) | > 100 µM (inactive) | > 100 µM (inactive) | > 100 µM (inactive) | > 100 µM (inactive) | > 100 µM (inactive) | > 100 µM (inactive) | > 100 µM (inactive) | > 100 µM (inactive) | – | > 100 µM (inactive)
c1ccc(N/N=C2\NN=C(c3ccccc3)CS2)cc1 | 4.78 µM (inactive) | 3.8 µM (inactive) | 22.3 µM (inactive) | 11.3 µM (inactive) | 13.2 µM (inactive) | 3.66 µM (inactive) | 14 µM (inactive) | 3.49 µM (inactive) | 14.9 µM (inactive) | – | 14.7 µM (inactive) | 5.27 µM (inactive) | 7.8 µM (inactive) | 18.2 µM (inactive) | > 10 µM (inactive) | 19.3 µM (inactive) | – | 12.1 µM (inactive) | 5.81 µM (inactive) | 4.38 µM (inactive)
CC1C(/C=C/c2ccoc2)ON2CCCC12 (stereo unspecified) | – | – | > 10 µM (inactive) | 17.8 µM (inactive) | – | – | > 100 µM (inactive) | > 100 µM (inactive) | – | > 100 µM (inactive) | > 100 µM (inactive) | > 100 µM (inactive) | 35.6 µM (inactive) | > 100 µM (inactive) | > 100 µM (inactive) | > 100 µM (inactive) | > 100 µM (inactive) | > 100 µM (inactive) | – | > 100 µM (inactive)
O=C(CC1=NCCN1)c1ccccc1 | > 213 µM (inactive) | > 750 µM (inactive) | > 605 µM (inactive) | > 319 µM (inactive) | > 750 µM (inactive) | > 750 µM (inactive) | > 511 µM (inactive) | > 750 µM (inactive) | > 750 µM (inactive) | > 750 µM (inactive) | > 750 µM (inactive) | > 750 µM (inactive) | > 750 µM (inactive) | > 750 µM (inactive) | > 750 µM (inactive) | > 750 µM (inactive) | > 735 µM (inactive) | > 750 µM (inactive) | > 750 µM (inactive) | –
COc1ccc(Br)c(CN2CCc3ccccc32)c1OS(=O)(=O)c1ccc(C)cc1 | 8.17 µM (inactive) | – | – | 18 µM (inactive) | 7.66 µM (inactive) | 29.3 µM (inactive) | – | 4.39 µM (inactive) | 5.07 µM (inactive) | – | > 100 µM (inactive) | 47.5 µM (inactive) | 8.67 µM (inactive) | 21.8 µM (inactive) | 76 µM (inactive) | 42.5 µM (inactive) | 19.2 µM (inactive) | 16.3 µM (inactive) | – | 14.7 µM (inactive)
Cc1ccc(S(=O)(=O)N/N=C(/c2nc3ccc([N+](=O)[O-])cc3nc2O)C(O)c2ccc(C(O)/C(=N\NS(=O)(=O)c3ccc(C)cc3)c3nc4ccc([N+](=O)[O-])cc4nc3O)cc2)cc1 (stereo unspecified) | 49.1 µM (inactive) | 54.2 µM (inactive) | 43.1 µM (inactive) | 2.55 µM (inactive) | 19.3 µM (inactive) | 28.2 µM (inactive) | 35.6 µM (inactive) | 3.15 µM (inactive) | 61.2 µM (inactive) | – | > 100 µM (inactive) | 92.3 µM (inactive) | > 100 µM (inactive) | 77.6 µM (inactive) | – | > 100 µM (inactive) | > 100 µM (inactive) | 42.8 µM (inactive) | 68.4 µM (inactive) | 28.6 µM (inactive)
COc1ccc(-c2nc(-c3cnccn3)n(Cc3ccccc3)n2)cc1 | > 100 µM (inactive) | > 100 µM (inactive) | > 100 µM (inactive) | > 100 µM (inactive) | > 100 µM (inactive) | > 100 µM (inactive) | > 100 µM (inactive) | > 100 µM (inactive) | > 100 µM (inactive) | > 100 µM (inactive) | > 100 µM (inactive) | > 100 µM (inactive) | > 100 µM (inactive) | – | > 100 µM (inactive) | > 100 µM (inactive) | 47.9 µM (inactive) | > 100 µM (inactive) | > 100 µM (inactive) | –
CN(C)CCNC(=O)c1cccc2c1nc(-c1cccnc1)c1ccccc12 | 1.21 µM (inactive) | 2.95 µM (inactive) | 6.24 µM (inactive) | 5.31 µM (inactive) | 6.78 µM (inactive) | 0.311 µM (active) | 0.303 µM (active) | – | 10.1 µM (inactive) | 4.91 µM (inactive) | 8.83 µM (inactive) | 4.81 µM (inactive) | 4.71 µM (inactive) | 10.6 µM (inactive) | 3.3 µM (inactive) | 7.05 µM (inactive) | 9.35 µM (inactive) | 2.17 µM (inactive) | 3.57 µM (inactive) | 2.58 µM (inactive)
CCOC(=O)C(NC(=O)c1cccc(Cl)c1)(Nc1ccc(S(=O)(=O)Nc2cc(C)on2)cc1)C(F)(F)F (stereo unspecified) | > 100 µM (inactive) | > 100 µM (inactive) | > 100 µM (inactive) | > 100 µM (inactive) | > 100 µM (inactive) | > 100 µM (inactive) | > 100 µM (inactive) | > 100 µM (inactive) | > 100 µM (inactive) | > 100 µM (inactive) | > 100 µM (inactive) | > 100 µM (inactive) | 42.5 µM (inactive) | > 100 µM (inactive) | > 100 µM (inactive) | > 100 µM (inactive) | > 100 µM (inactive) | > 100 µM (inactive) | – | > 100 µM (inactive)

From ChEMBL document CHEMBL1201862, “PubChem BioAssay data set” (2004)
